Source: PMC4350332 (Oncotarget, 2014)
Like-named read-outs stand apart in the source and are kept apart here.

Assays:
HSP-90 = target: T1, HSP-90 (Homo sapiens, UniProt P08238); test: HSP-90 fluorescence polarization assay; assay type: binding; details: read-out: HSP-90 FP, IC50
T1 construct: made in house
Experimental: (§1) The HSP-90ß FP assay was conducted as previously described.

[1] = test system: p(Ser^293)E1α levels in PC-3 cells; test: Phospho(Ser293) E1α MSD ELISA in PC-3 cells; assay type: cell-based; details: for IC50: Homo sapiens, PD marker (ELISA); for Degree of suppression of p(Ser^293)E1α levels (plateau), reduction compared to DMSO control: MSD ELISA
Experimental: (§2) Phospho(Ser^293) E1α MSD ELISA assay: All reagents were purchased from Meso Scale Discovery (Maryland, USA) unless otherwise stated. Following compound treatment, cells were treated with lysis buffer (TBS pH 7.4, 1% Tween-20, 1 mM EGTA, 1 mM EDTA, 1 mM NaF, protease and phosphatase inhibitor cocktails (Roche)) on ice and the lysates added to standard bind 96 well MSD plates which were pre-loaded with custom phospho(Ser^293)E1α ‘capture’ antibody (2 μg/ml in TBST containing 3% (w/v) blocker A) (Genescript) and blocked with 3% (w/v) blocker A, followed by a 1 h incubation at RT. The wells were then washed 3X with TBST (0.05% tween 20) followed by the addition of 2 μg/ml E1α ‘detection’ antibody (2 μg/ml) (Abcam) and a further 1 h incubation at RT. The wells were again washed 3X with TBST followed by the addition of 1 μg/ml Goat anti-mouse Sulfotag antibody, and a further TBST wash prior to the addition of 2X read buffer T. The chemiluminescent signal was then measured on a MSD sector imager 2400.

panel of 97 kinases = test: scanEDGE kinase selectivity screen (DiscoverX); assay type: binding; details: 10 μM
From the text: A proprietary active site-directed competition binding assay was employed to quantitatively measure interactions between test compounds and the individual kinases on the panel. Results were expressed as a percentage of control binding, with 0% indicating complete binding of the test compound.

[2] = test system: p(Ser^293)E1α in PC-3 cells; test: Immunoblot time course of biomarker suppression in PC-3 cells; assay type: cell-based; details: Fig. 2F
Experimental: Cell lysates were prepared by washing cells with PBS followed by the addition of lysis buffer (2% SDS, 50 mM TRIS-pH 6.8) directly to the well. Equal amounts of lysate were loaded onto pre-cast 4-12% SDS-PAGE gels (Life technologies) followed by transfer to PVDF membrane. The membranes were blocked for 1 h in TBST containing 5% non-fat dried milk, followed by a 2 h incubation with the relevant primary antibody: PDH phospho(Ser^293)E1α (Genescript, custom rabbit polyclonal antibody), 1:600; PDH E1α (Abcam), 1:1000; PDP-1 (Sigma), 1:2000; PDK-1 (ENZO), 1:1000; HSP-70 (Santa Cruz), 1:5000; β-tubulin (Cell signaling technology), 1:1000. The membranes were then incubated with HRP-linked goat anti-rabbit or anti-mouse secondary antibodies (Santa Cruz) followed by visualization of immunoreactive bands by the addition of a chemiluminescent substrate (Millipore).

PC-3 cells = test: Metabolite analysis (L-lactate, D-glucose, pyruvate, L-alanine) in PC-3 cells; assay type: cell-based; details: for Reduction in media L-lactate levels: 1 h; for Intracellular pyruvate levels: 24 h
Experimental: Pyruvate, L-lactate, D-glucose and L-alanine levels were determined using commercially available assay kits (Abcam) as per the manufacturer's instructions.

[3] = test system: PC-3, SW-1088, UM-22B and MEF cell lines; test: Sulforhodamine B cytotoxicity, cell line set; assay type: cell-based
Experimental: (§3) Compound cytotoxicity was determined using the Sulforhodamine B assay for cells cultured as a monolayer as described previously (45). For spheroid growth experiments, PC-3 cells were seeded (500 cells/well) into 96 well round bottom plates (Corning Costar 7007) in RPMI-1640 media containing 2.5% (w/v) Matrigel (BD Biosciences). […] Spheroid volumes were determined by obtaining diameter measurements from images taken on a Zeiss Axiovert 200M inverted microscope using the axiovision software.

HFF cells = test: Sulforhodamine B cytotoxicity, HFF cells; assay type: cell-based, human; details: all of the conditions tested, 120 h
Experimental: Compound cytotoxicity was determined using the Sulforhodamine B assay for cells cultured as a monolayer as described previously (45). For spheroid growth experiments, PC-3 cells were seeded (500 cells/well) into 96 well round bottom plates (Corning Costar 7007) in RPMI-1640 media containing 2.5% (w/v) Matrigel (BD Biosciences). […] Spheroid volumes were determined by obtaining diameter measurements from images taken on a Zeiss Axiovert 200M inverted microscope using the axiovision software. […]
oncogenic KRAS(G13D) and BRAF(V600E) mutations. A and B, Cell lines harboring a KRAS(G13D) mutation (HCT-116, DLD-1 and MDA-MB-231), wild-type KRAS (MDA-MB-453) or a BRAF(V600E) mutation (A2058 and A375) were seeded into 96 well plates. The […]
DMSO in different culture conditions for 120 h. Cell mass was determined using the suforhodamine B assay. Norm = glucose-free media supplemented with 10% FCS and 2 g/L D-glucose; VLG (very low glucose) = 0.1 g/L D-glucose; LS (low serum) = 0.5% FCS.
Experiments were performed in triplicate. Error bars represent standard deviation of the […]
(1 picture or pasted object on this page, not shown here)

[4] = test system: PC-3, K562, Jurkat and MDA-MD-453 cell lines; test: Growth in D-glucose or D-galactose media (Sulforhodamine B); assay type: cell-based; details: 20 μM, 96 h
Experimental: transformed and additional cancer cell lines. A, The indicated cell lines were seeded into
relevant media containing either 2 g/L D-glucose or D-galactose for 96 h. Cell mass was determined using the sulforhodamine B assay. Results are expressed as the percentage change vs DMSO control values for cells incubated in D-glucose containing media.
Experiments were performed in triplicate (A & C) or quadruplicate (B). Error bars represent standard deviation of the mean (*, P < 0.01).

PC-3 spheroids = test: Spheroid growth assay (3D culture); assay type: cell-based; details: concentrations of 10 μM and above
Experimental: as §3

PDK-4 = target: T2, PDK-4 (Homo sapiens, UniProt Q16654); test: DELFIA-based enzyme functional assay (E1 substrate), PDK-4; assay type: biochemical; details: data not shown
T2 construct: PDK-4: residues 1-412; made in house; host or cells: E. coli BL21
T2 sequence (Q16654 whole entry, the tested form may be a part): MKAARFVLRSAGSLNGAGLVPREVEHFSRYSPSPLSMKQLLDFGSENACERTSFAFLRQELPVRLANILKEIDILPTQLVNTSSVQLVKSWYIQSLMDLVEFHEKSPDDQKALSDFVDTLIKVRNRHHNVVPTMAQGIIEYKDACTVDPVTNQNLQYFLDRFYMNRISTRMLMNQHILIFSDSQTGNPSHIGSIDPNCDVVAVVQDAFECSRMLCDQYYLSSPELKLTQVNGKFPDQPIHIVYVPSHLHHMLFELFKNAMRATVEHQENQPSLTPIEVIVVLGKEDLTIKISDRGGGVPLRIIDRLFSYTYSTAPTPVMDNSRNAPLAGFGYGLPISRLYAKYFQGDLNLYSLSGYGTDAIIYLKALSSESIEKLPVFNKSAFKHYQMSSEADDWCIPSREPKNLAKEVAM

[5] = test system: p(Ser^293)E1α levels in ES-2 cells; test: Phospho(Ser293) E1α suppression in ES-2 cells; assay type: cell-based
Experimental: as §2

PDK-1 [6] = target: T3, PDK-1 (Homo sapiens, UniProt Q15118); test: Isothermal calorimetry (ITC) binding affinity; set-up: PDK-1: residues 30-436; made in house; host or cells: E. coli BL21
T3 sequence (Q15118 30-436): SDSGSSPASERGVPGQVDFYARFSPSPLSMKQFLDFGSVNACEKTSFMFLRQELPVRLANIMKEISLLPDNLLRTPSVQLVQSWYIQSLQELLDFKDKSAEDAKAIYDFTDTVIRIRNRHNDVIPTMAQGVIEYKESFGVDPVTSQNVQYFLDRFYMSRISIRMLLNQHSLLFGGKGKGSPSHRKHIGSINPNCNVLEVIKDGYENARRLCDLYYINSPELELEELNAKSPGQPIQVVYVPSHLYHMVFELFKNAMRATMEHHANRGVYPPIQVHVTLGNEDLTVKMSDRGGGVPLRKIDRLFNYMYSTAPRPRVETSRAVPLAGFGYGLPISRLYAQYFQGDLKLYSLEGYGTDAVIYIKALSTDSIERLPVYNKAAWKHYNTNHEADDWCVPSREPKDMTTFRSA

PDK-1 [7] = target: T3, PDK-1; test: PDK-1 fluorescence polarization assay (fluorescein-labelled ATP site probe); assay type: binding; set-up: PDK-1: residues 30-436; made in house; host or cells: E. coli BL21; details: fluorescence polarization; mean of n determinations; read-out: PDK-1 FP, IC50
Experimental: carbamoyl]-2-(6-hydroxy-3-oxo-3H-xanthen-9-yl)benzoic acid), which binds to the ATP site of PDK resulting in an increase in anisotropy.
as §1

T1 sequence (P08238 whole entry, species assumed): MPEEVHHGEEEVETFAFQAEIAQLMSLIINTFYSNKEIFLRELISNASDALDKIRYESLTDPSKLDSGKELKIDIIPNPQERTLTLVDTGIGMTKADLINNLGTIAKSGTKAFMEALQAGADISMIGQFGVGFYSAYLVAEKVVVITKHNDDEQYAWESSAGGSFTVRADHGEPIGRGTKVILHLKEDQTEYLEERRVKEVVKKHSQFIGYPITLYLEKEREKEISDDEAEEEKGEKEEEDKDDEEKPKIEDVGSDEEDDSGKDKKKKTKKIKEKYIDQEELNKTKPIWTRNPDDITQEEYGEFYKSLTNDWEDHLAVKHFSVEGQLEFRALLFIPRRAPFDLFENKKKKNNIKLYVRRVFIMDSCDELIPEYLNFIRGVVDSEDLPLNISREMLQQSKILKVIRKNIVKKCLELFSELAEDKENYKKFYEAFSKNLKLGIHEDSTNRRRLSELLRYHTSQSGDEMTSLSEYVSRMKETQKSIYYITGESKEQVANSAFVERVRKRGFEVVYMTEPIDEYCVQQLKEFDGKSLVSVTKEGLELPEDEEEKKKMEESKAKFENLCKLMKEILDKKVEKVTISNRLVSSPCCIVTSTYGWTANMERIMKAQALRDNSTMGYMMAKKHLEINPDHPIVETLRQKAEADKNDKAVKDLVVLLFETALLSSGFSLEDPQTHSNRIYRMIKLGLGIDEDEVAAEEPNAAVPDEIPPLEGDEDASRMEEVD

Cc1cnc(Cl)nc1-c1ccc(N(Cc2ccc(CNC(=O)C(F)F)cc2)C(=O)c2ccc(O)cc2O)cc1 [VER-246608]
IC50 (HSP-90): > 100000 nM
IC50 ([1]; PC-3, read-out: p(Ser^293)E1α (10% FCS), IC50, 10% FCS): 1450 nM
IC50 ([1]; PC-3 cells, 0% FCS, read-out: p(Ser^293)E1α (0% FCS), IC50): 266 nM
Reduction in p(Ser^293)E1α levels ([1]; PC-3, 10 and 20 μM, 24 h, D-glucose/L-glutamine-depleted media): > 70%
Degree of suppression of p(Ser^293)E1α levels (plateau), reduction compared to DMSO control ([1]; PC-3 cells): complete suppression
Number of further kinases with ligand binding between 10 and 35% of control (panel of 97 kinases): seven
Number of kinases with ligand binding reduced to ≤ 10% of control values (panel of 97 kinases): one
Kinases on the panel with significant or partial binding (panel of 97 kinases; ligand binding reduced to ≤35% of control): 8%
Period of time to achieve maximal biomarker suppression [2]: 16 min
Reduction in media L-lactate levels (PC-3 cells; PC-3, 9 μM, 0.25 g/L D-glucose, 2% dialyzed FCS): 21%
Intracellular pyruvate levels (PC-3 cells; PC-3, 20 μM, D-glucose/L-glutamine and serum depleted conditions): marked reduction
Intracellular pyruvate levels (PC-3 cells; PC-3, 20 μM, standard culture conditions): no change
Extracellular L-alanine levels (PC-3 cells; PC-3, 20 μM, standard and low serum culture conditions): further substantial decrease
Reduction in media L-lactate levels (PC-3 cells; PC-3, 27 μM, 0.25 g/L D-glucose, 2% dialyzed FCS): 42%
Extracellular L-lactate levels (PC-3 cells; PC-3, 24 h, 10 and 20 μM, D-glucose/L-glutamine-depleted media): further reduction
L-lactate production vs DMSO (PC-3 cells; PC-3, 24 h, normal or low serum media): not altered
Effect on D-glucose consumption (PC-3 cells; PC-3, same concentrations that reduced L-lactate production (9 and 27 μM)): decreased D-glucose consumption
Compound potency under hypoxic conditions ([3]; 0.1% O2): no evidence of augmented compound potency
Cytotoxicity (reduced cell mass) in standard culture ([3]; Sulforhodamine B assay, standard media): weakly cytotoxic
Activity against HFF cells (HFF cells): largely inactive
Effect on growth in D-glucose or D-galactose containing media [4]: little to no effect
Reduction in spheroid volume (PC-3 spheroids): approximately 50%

C[C@@H]1CN(C(=O)[C@](C)(O)C(F)(F)F)[C@@H](C)CN1C(=O)c1ccc(C#N)cc1 [Nov3r, reference compound]
Stimulation of PDK-4 activity (PDK-4): approximately 2 fold
IC50 (HSP-90): > 200000 nM
Degree of suppression of p(Ser^293)E1α levels (plateau), reduction compared to DMSO control ([1]; PC-3 cells): approximately 60%
Sub-maximal suppression of p(Ser^293)E1α levels [5]: 80%
Period of time to achieve maximal biomarker suppression [2]: 16 min
Change in media L-lactate levels (PC-3 cells; PC-3, all concentrations tested, 0.25 g/L D-glucose, 2% dialyzed FCS): no change
Kd (PDK-1 [6]): 8 nM
IC50 (PDK-1 [7]): 83 nM
